Experimental data as given in patent publication US8648066B2 (Exelixis, Inc., priority 2009, dated 2014).
pIC50: −log10 of the molar value.

Target: mTOR/GbL/Raptor (mTORC1) (Homo sapiens, UniProt P42345)
Assay: mTOR/GbL/Raptor (mTORC1) ELISA assay
Assay type: biochemical
Conditions: phosphorylation of 4E-BP1; 0.2 nM mTORC1, 10 μM ATP; read-out: IC50 in this assay (mTORC1 ELISA)
In short: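 ELISA read-out: phospho-4E-BP1 captured on Ni-chelate plates and detected with anti-phospho antibody plus HRP-anti-IgG luminescence. The kinase step ran 120 min at ambient temperature with 0.2 nM human mTORC1, 10 µM ATP, 50 nM His-4E-BP1, 10 mM MnCl2, pH 7.2 HEPES.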

SMILES	pIC50
CCN(Cc1nc2c(c(N3CCOc4ccc(-c5cnc6nc(C)[nH]c6c5)cc4C3)n1)CC(C)(C)CC2)C(C)C [Example 603, N-({6,6-dimethyl-4-[7-(2-methyl-1H-imidazo[4,5-b]pyridin-6-yl)-2,3-dihydro-1,4-benzoxazepin-4(5H)-yl]-5,6,7,8-tetrahydroquinazolin-2-yl}methyl)-N-ethylpropan-2-amine]	6.60 to 7.30
Cc1nc2c(c(N3CCOc4ccc(-c5cnc(N)c(S(=O)(=O)NCC6CCN(C)CC6)c5)cc4C3)n1)CC(C)(C)CC2 [Example 419, 2-amino-N-[(1-methylpiperidin-4-yl)methyl]-5-[4-(2,6,6-trimethyl-5,6,7,8-tetrahydroquinazolin-4-yl)-2,3,4,5-tetrahydro-1,4-benzoxazepin-7-yl]pyridine-3-sulfonamide]	6.00 to 6.60
CNC(=O)c1ccc(-c2ccc3c(c2)CN(c2ccnc4ccccc24)CCO3)cc1 [Example 239, N-methyl-4-(4-quinolin-4-yl-2,3,4,5-tetrahydro-1,4-benzoxazepin-7-yl)benzamide]	6.60 to 7.30
C=Cc1nc2c(c(N3CCOc4ccc(-c5cnc6[nH]c(C)nc6c5)cc4C3)n1)CC(C)(C)CC2 [Example 465, 4-(2-ethenyl-6,6-dimethyl-5,6,7,8-tetrahydroquinazolin-4-yl)-7-(2-methyl-3H-imidazo[4,5-b]pyridin-6-yl)-2,3,4,5-tetrahydro-1,4-benzoxazepine]	7.30 to 8.00
Cc1nc2ncc(-c3ccc4c(c3)CN(c3nc(CN5CC[C@H](F)C5)nc5c3CC(C)(C)CC5)CCO4)cc2[nH]1 [Example 464, 4-(2-{[(3S)-3-fluoropyrrolidin-1-yl]methyl}-6,6-dimethyl-5,6,7,8-tetrahydroquinazolin-4-yl)-7-(2-methyl-1H-imidazo[4,5-b]pyridin-6-yl)-2,3,4,5-tetrahydro-1,4-benzoxazepine]	7.30 to 8.00
c1cc(N2CCOc3ccc(-c4ccc5nc[nH]c5c4)cc3C2)ncn1 [Example 541, 7-(1H-benzimidazol-6-yl)-4-pyrimidin-4-yl-2,3,4,5-tetrahydro-1,4-benzoxazepine]	≤ 5.70
CC1(C)CCc2ncnc(N3CCOc4ccc(-c5cnc(N)c(S(=O)(=O)N6CC[C@@H](N)C6)c5)cc4C3)c2C1 [Example 449, 3-{[(3R)-3-aminpyrrolidin-1-yl]sulfonyl}-5-[4-(6,6-dimethyl-5,6,7,8-tetrahydroquinazolin-4-yl)-2,3,4,5-tetrahydro-1,4-benzoxazepin-7-yl]pyridin-2-amine]	≥ 8.00
c1ccc2c(N3CCOc4ccc(-c5ccc6nc(C7CC7)[nH]c6c5)cc4C3)ccnc2c1 [Example 199, 7-(2-cyclopropyl-1H-benzimidazol-6-yl)-4-quinolin-4-yl-2,3,4,5-tetrahydro-1,4-benzoxazepine]	6.00 to 6.60
CC[C@H]1CCCc2c(ncnc2N2CCOc3ccc(-c4cnc5nc(C)[nH]c5c4)cc3C2)C1 [Example 490]	≥ 8.00
CC(N)CNS(=O)(=O)c1cc(-c2ccc3c(c2)CN(c2ncnc4c2CC(C)(C)CC4)CCO3)cnc1N (centres unmarked) [Example 410, 2-amino-N-(2-aminopropyl)-5-[4-(6,6-dimethyl-5,6,7,8-tetrahydroquinazolin-4-yl)-2,3,4,5-tetrahydro-1,4-benzoxazepin-7-yl]pyridine-3-sulfonamide]	6.60 to 7.30
CN(C)Cc1nc2c(c(N3CCOc4ccc(-c5ccc6[nH]c(C(F)F)nc6c5)cc4C3)n1)CC(C)(C)CC2 [Example 320]	7.30 to 8.00
Cc1nc2ncc(-c3ccc4c(c3)CN(c3nc(CN)nc5c3CC(C)(C)CC5)CCO4)cc2[nH]1 [Example 352, 1-{6,6-dimethyl-4-[7-(2-methyl-1H-imidazo[4,5-b]pyridin-6-yl)-2,3-dihydro-1,4-benzoxazepin-4(5H)-yl]-5,6,7,8-tetrahydroquinazolin-2-yl}methanamine]	≥ 8.00
Cc1nc2ccc(-c3ccc4c(c3)CN(c3nc(CN5CC[C@@H](F)C5)nc5c3CC(C)(C)CC5)CCO4)cc2[nH]1 [Example 461]	6.60 to 7.30
Cc1nc2ncc(-c3ccc4c(c3)CN(c3nc(CN(C)C)nc(C)c3CC3CC3)CCO4)cc2[nH]1 [Example 346, 1-{5-(cyclopropylmethyl)-4-methyl-6-[7-(2-methyl-1H-imidazo[4,5-b]pyridin-6-yl)-2,3-dihydro-1,4-benzoxazepin-4(5H)-yl]pyrimidin-2-yl}-N,N-dimethylmethanamine]	6.60 to 7.30
COc1ccc2c(N3CCOc4ccc(-c5cnc(N)c([S+]([O-])C[C@@H](C)CO)c5)cc4C3)ncnc2c1 (stereo partly drawn) [Example 302, (2S)-3-[(2-amino-5-{4-[7-(methyloxy)quinazolin-4-yl]-2,3,4,5-tetrahydro-1,4-benzoxazolin-7-yl}pyridin-3-yl)sulfinyl]-2-methylpropan-1-ol]	6.00 to 6.60
CC1(C)CCc2ncnc(N3CCOc4ccc(-c5cnc(N)c(S(N)(=O)=O)c5)cc4C3)c2C1 [Example 399, 2-amino-5-[4-(6,6-dimethyl-5,6,7,8-tetrahydroquinazolin-4-yl)-2,3,4,5-tetrahydro-1,4-benzoxazepin-7-yl]pyridine-3-sulfonamide]	≥ 8.00
CC[C@H]1CCc2c(ncnc2N2CCOc3ccc(-c4cnc5nc([C@H](C)N)[nH]c5c4)cc3C2)C1 [Example 298, (1S)-1-(6-{4-[(7S)-7-ethyl-5,6,7,8-tetrahydroquinazolin-4-yl]-2,3,4,5-tetrahydro-1,4-benzoxazepin-7-yl}-1H-imidazo[4,5-b]pyridin-2-yl)ethanamine]	6.60 to 7.30
Nc1ccc(-c2ccc3c(c2)CN(c2ccnc4ccccc24)CCO3)cn1 [Example 226, 5-(4-quinolin-4-yl-2,3,4,5-tetrahydro-1,4-benzoxazepin-7-yl)pyridin-2-amine]	7.30 to 8.00

Second part, the molecule after the results:

pIC50	SMILES
6.00 to 6.60	Cc1nc2ccc(-c3ccc4c(c3)CN(c3ncnc(C)c3Cc3cccc(C(F)(F)F)c3)CCO4)cc2[nH]1 [Example 92, 7-(2-methyl-1H-benzimidazol-6-yl)-4-(6-methyl-5-{[3-(trifluoromethyl)phenyl]methyl}pyrimidin-4-yl)-2,3,4,5-tetrahydro-1,4-benzoxazepine]
6.60 to 7.30	Cc1nc2ccc(-c3ccc4c(c3)CN(c3ncnc(C)c3CC3CC3)CCO4)cc2[nH]1 [Example 69, 4-[5-(cyclopropylmethyl)-6-methylpyrimidin-4-yl]-7-(2-methyl-1H-benzimidazol-6-yl)-2,3,4,5-tetrahydro-1,4-benzoxazepine]
≥ 8.00	Cc1nc2ccc(-c3ccc4c(c3)CN(c3ncnc(C)c3C(C)c3ccccc3)CCO4)cc2[nH]1 (centres unmarked) [Example 74]
≤ 5.70	COCCOc1ccc2ncnc(N3CCOc4ccc(-c5ccc6nc(C)[nH]c6c5)cc4C3)c2c1 [Example 163, 7-(2-methyl-1H-benzimidazol-6-yl)-4-(6-{[2-(methyloxy)ethyl]oxy}quinazolin-4-yl)-2,3,4,5-tetrahydro-1,4-benzoxazepine]
6.60 to 7.30	Cc1nc2ccc(-c3ccc4c(c3)CN(c3nc(-c5ccccn5)nc5c3CC(C)(C)CC5)CCO4)cc2[nH]1 [Example 472, 4-(6,6-dimethyl-2-pyridin-2-yl-5,6,7,8-tetrahydroquinazolin-4-yl)-7-(2-methyl-1H-benzimidazol-6-yl)-2,3,4,5-tetrahydro-1,4-benzoxazepine]
6.60 to 7.30	CCc1ncnc(N2CCOc3ccc(-c4ccc5nc(C)[nH]c5c4)cc3C2)c1CC [Example 58, 4-(5,6-diethylpyrimidin-4-yl)-7-(2-methyl-1H-benzimidazol-6-yl)-2,3,4,5-tetrahydro-1,4-benzoxazepine]
6.00 to 6.60	Nc1nc2ccc(-c3ccc4c(c3)CN(c3ccnc5ccccc35)CCO4)cc2[nH]1 [Example 190, 6-(4-quinolin-4-yl-2,3,4,5-tetrahydro-1,4-benzoxazepin-7-yl)-1H-benzimidazol-2-amine]
≥ 8.00	Cc1ncnc(N2CCOc3ccc(-c4cnc5nc(N)[nH]c5c4)cc3C2)c1Cc1ccc(F)cc1 [Example 176, 6-(4-{5-[(4-fluorophenyl)methyl]-6-methylpyrimidin-4-yl}-2,3,4,5-tetrahydro-1,4-benzoxazepin-7-yl)-1H-imidazo[4,5-b]pyridin-2-amine]
7.30 to 8.00	CCC1CCc2ncnc(N3CCOc4ccc(-c5ccc6nc(C)[nH]c6c5)cc4C3)c2C1 (centres unmarked) [Example 68, 4-(6-ethyl-5,6,7,8-tetrahydroquinazolin-4-yl)-7-(2-methyl-1H-benzimidazol-6-yl)-2,3,4,5-tetrahydro-1,4-benzoxazepine]
≥ 8.00	CC1=C(C)C(C)(C)Cc2c1ncnc2N1CCOc2ccc(-c3cnc4nc(C)[nH]c4c3)cc2C1 [Example 552, 7-(2-methyl-1H-imidazo[4,5-b]pyridin-6-yl)-4-(6,6,7,8-tetramethyl-5,6-dihydroquinazolin-4-yl)-2,3,4,5-tetrahydro-1,4-benzoxazepine]
6.60 to 7.30	CSc1nc2ccc(-c3ccc4c(c3)CN(c3ccnc5ccccc35)CCO4)cc2[nH]1 [Example 207, 7-[2-(methylthio)-1H-benzimidazol-6-yl]-4-quinolin-4-yl-2,3,4,5-tetrahydro-1,4-benzoxazepine]
≥ 8.00	Cc1ccc(Cc2c(C)ncnc2N2CCOc3ccc(-c4ccc5nc(C)[nH]c5c4)cc3C2)cc1 [Example 78, 7-(2-methyl-1H-benzimidazol-6-yl)-4-{6-methyl-5-[(4-methylphenyl)methyl]pyrimidin-4-yl}-2,3,4,5-tetrahydro-1,4-benzoxazepine]
6.00 to 6.60	COc1ccc2c(N3CCOc4ccc(-c5ccc6nc[nH]c6c5)cc4C3)nc(C)nc2c1 [Example 280, 7-(1H-benzimidazol-6-yl)-4-[2-methyl-7-(methyloxy)quinoazolin-4-yl]-2,3,4,5-tetrahydro-1,4-benzoxazepine]
6.00 to 6.60	CCSc1nc2c(c(N3CCOc4ccc(-c5ccc6nc(C)[nH]c6c5)cc4C3)n1)CCC2 [Example 54, 4-[2-(ethylthio)-6,7-dihydro-5H-cyclopenta[d]pyrimidin-4-yl]-7-(2-methyl-1H-benzimidazol-6-yl)-2,3,4,5-tetrahydro-1,4-benzoxazepine]
